According to US20250304933A1, “INDUCIBLE RECOMBINASE SYSTEMS” (priority 2022, published 2025):

Experiments:
[1] = system: mice transplanted with UbcCreER-Jak2^RL bone marrow exhibiting active MPN; assay: 6-week in vivo drug trial in competitive transplant MPN mice; settings: for CD45.2 chimerism in peripheral blood: 6-week trial; for mutant cell fraction in LSK stem-cell enriched population (mean): bone marrow; for mutant cell fraction in LSK stem-cell enriched population (mean) / Hct / spleen weights (mean): conclusion of 6-week trial; for spleen weights (mean): ruxolitinib 60 mg/kg P.O. twice daily, CHZ868 30 mg/kg P.O. daily
Description: (§1) Peripheral blood was isolated by submandibular bleeds.
Investigators were not blinded to the identity of mice or samples. Mice were treated for a total of 6 weeks before timed sacrifice and marrow/spleen harvested as above.

Jak2^V617F LSKs and MEPs = settings: 7 days of treatment; for down-regulation of STAT5 target gene expression, NES: vs MPN control
Description: Lineage-depleted marrow was isolated and then TdTonmato+ (Jak2^RL knock-in) or GFP+ (Jak2^RL knock-out) LSKs and MEPs were sorted on a FACSAria III directly into Trizol LS (Invitrogen) and stored at −80° C. until processing. RNA was subsequently isolated using the Direct-Zol Microprep Kit (Zymo Research, R2061) according to manufacturer's protocol and quantified using the Agilent High Sensitivity RNA ScreenTape (Agilent 5067-5579) on an Agilent 2200 TapeStation. cDNA was generated from 1 ng of input RNA using the SMART-Seq HT Kit (Takara 634455) at half reaction volume followed by Nextera XT (Illumina FC-131-1024) library preparation. cDNA and tagmented libraries were quantified using High Sensitivity D5000 ScreenTape (5067-5592) and High Sensitivity D1000 ScreenTape respectively (5067-5584). Libraries were sequenced on a NovaSeq at the Integrated Genomics Operation (IGO) at MSKCC.
Statistical analyses were performed using Student's t-test (normal distribution) using GraphPad Prism version 6.Oh (GraphPad Software, San Diego, CA). Kaplan-Meier curves were determined using the log-rank test. P<0.05 was considered statistically significant. The number of animals, cells and experimental replication can be found in the respective figure legends. FASTQ files were demultiplexed using a java script from Takara. FASTQ files were mapped and transcript counts were enumerated using STAR (genome version mm10 and transcript version ensembl XX). Counts were input into R and RNA-sequencing analysis using DESeq2. Gene set enrichment analysis was performed using the fgsea package with genesets extracted from the msigdbr package. Single sample gene set enrichment analysis was performed using the gsva package. Figures were generated using ggplot2 and tidyhetamps packages.

Ybx1 = Ybx1 quantitative RT-PCR in cKit+ bone marrow after 7 days of treatment; assay type: in vivo, mice; settings: sorted cKit+ cells
Description: Total RNA was extracted from magnetic-bead isolated cKit+ bone marrow (Miltenyi Biotec) using the Direct-zol RNA extraction kit (Zymo) per manufacturers' protocols respectively. Complementary DNA was then reverse transcribed using the Verso cDNA Synthesis kit (ThermoFisher Scientific). Ybx1 expression was evaluated by quantitative reverse-transcription (qRT) PCR using Taqman probes purchased from ThermoFisher (Mm00850878_g1) on the RealPlex thermocycler (ThermoFisher Scientific, Fairlawn, NJ).

[2] = system: UbcCreER-Jak2^RL MPN mice; assay: bone marrow myeloid progenitor frequencies by flow cytometry after 7 days of treatment; assay type: in vivo
[3] = system: mice transplanted with Dre-electroporated Ubc:CreER-Jak2^RL bone marrow exhibiting MPN; assay: Jak2^RL knock-in/knock-out competitive transplant, tamoxifen-induced Jak2^V617F deletion; assay type: in vivo; settings: within 3-6 weeks following tamoxifen treatment, vs MPN control
Excerpt: as §1

[4] = system: Cre-negative Jak2^RL MPN bone marrow cells; settings: mouse, in vivo
Description: FIGS. 9D-9E show total bone marrow (BM) cellularity (femur) (FIG. 9D) and Myeloid progenitor (Lineage−cKit+Sca1−) (FIG. 9E) frequencies of MPN (CTRL) vs. tamoxifen (TAM) treated mice transplanted with Cre-negative JAK2^RL knock-in cells in competition with CD45.1 support at timed sacrifice 15 weeks (n=3-4 each; mean±s.e.m).
Jak2^RL and Jak2^RL/Tet2^f/f lines were crossed to UbcCreER tamoxifen-inducible Cre lines and RLTG dual-recombinase reporter lines.^17,24 Primary recipient mice transplanted with Dre mRNA-recombined UbcCreER-Jak2^RL or UbcCreER-Jak2^RL/Tet2^f/f bone marrow cells were bled every 3-4 weeks post-transplant to monitor disease status. Peripheral blood was isolated by submandibular bleeds. Complete blood counts were assessed on a ProCyte Dx (IDEXX Laboratories, Westbrook, ME) per manufacturer's instruction. […] To induce Cre and delete Jak2^V617F, mice were treated with tamoxifen (TAM; purchased from MedChemExpress) 100 mg/kg daily (dissolved in corn oil) by oral gavage ×4 followed by 14 days of TAM chow approx. 80 mg/kg daily (ENVIGO). […] For terminal tissue isolation, mice were euthanized with CO2 asphyxiation, and tissues were dissected and fixed with 4% paraformaldehyde for histopathological analysis. […] Bone marrow cell numbers were determined via an automatic cell counter (ViCell Blu, Beckman Coulter). […]

[5] = system: mutant Npm1 GOLDI-Lox Nras^G12D disease; assay: bone marrow transplant of Dre-induced mutant Npm1 GOLDI-Lox / Nras^G12D, TAM vs vehicle; assay type: in vivo; settings: compared to vehicle treated mice
Description: FIGS. 30A-30D show the development of a GOLDI-Lox On/Off Dre/Cre Npm1 Mouse.
A bone marrow transplant of a Dre-induced mutant Npm1 GOLDI-Lox expressing a co-mutant Nras^G12D allele immediately after Dre induction was performed, and mice were monitored for disease development (FIG. 30D, left panel). Upon development of disease, a cohort (n=5) of mice was treated with tamoxifen (TAM) to induce Cre and lead to reversion of the mutant Npm1 allele back to WT Npm1.

[6] = system: Jak2^V617F/Tet2^f/f mutant cells; assay: Jak2^V617F/Tet2^f/f competitive transplant, tamoxifen at 9 weeks post-transplant; assay type: in vivo, mice; settings: double-mutant cells
Excerpt: Dre mRNA was purchased from TriLink Biotechnologies (San Diego, CA) and electroporation carried out using the Neon Transfection System (ThermoScientific) per the manufacturer's protocol. Specifically, bone marrow donor cells were isolated from limb bones into PBS (pH 7.2) containing 2% fetal calf serum via centrifugation. After red blood cell lysis, single-cell suspensions were depleted of lineage-committed hematopoietic cells using a Lineage Cell Depletion Kit according to manufacturer's protocol (EasySep™, StemCell Technologies, Inc.). 2.5-3.0×10^6 lineage-depleted bone marrow was then washed in PBS and then resuspended in 135 uL Buffer T to which 15 μL of Dre mRNA (at 1 μg/μL) was quickly added and electroporated at the following conditions: 1700V for 20 ms×1 pulse. The cells were then pipetted into penicillin-streptomycin free StemSpan SFEM medium with thrombopoietin (TPO; 20 ng/mL; PeproTech) and stem cell factor (SCF; 20 ng/mL; PeproTech), cultured for two hours, and then subsequently harvested and washed/resuspended in phosphate buffered saline (PBS) and transplanted via lateral tail vein injection into lethally irradiated (900cGy) 6-8 week old C57BL/6J recipient mice at approximately 4×10^5 cells per recipient along with 50,000 un-electroporated whole bone marrow support cells. […]

[7] = system: Npm1^c-Lox-Flt3^GL-ITD leukemia; assay: long term TAM treatment of mice engrafted with Npm1^Lox-C Flt3^GL-ITD leukemia; assay type: in vivo; settings: TAM-chow diet
Excerpt: FIGS. 19A-19H show reversible Flt3 mutagenesis in acute myeloid leukemia. Secondary transplant of Npm1^Lox-C Flt3^GL-ITD (20,000 cells) or Idh2^Lox-R140Q Flt3^GL-ITD (500,000) from FIGS. 18A-18E were engrafted into lethally irradiated secondary recipients with 500,000 CD45.1 WT cells. […]

[8] = system: DreStaPL-ODC Flt3^GL-ITD mice; assay: complete blood counts of DreStaPL-ODC x Flt3^GL-ITD mice after GZV; assay type: in vivo; settings: crossed to Flt3^GL-ITD, 6-8 weeks post treatment
Description: Peripheral blood was isolated by submandibular bleeds. Complete blood counts were assessed on a ProCyte by IDEXX. For flow cytometry analysis whole blood was lysed with RBC lysis buffer (Biolegend). […] For whole bone marrow was isolation, the femur, hip and tibia were dissected and cleaned.

[9] = system: DreSTAPL (Dre split with HCV-derived NS3 protease); assay: DreStaPL recombination reporter assay in infected Lin- bone marrow (Rosa26:RLTG); assay type: cell-based, mice; settings: 10 μM
Description: (§2) FIGS. 27A-27I show inducible recombinases for modeling Flt3 activation.
(§3) MSCV retroviral vectors were transfected with pCL-Eco packaging vector into 293T-17 cells using JetPRIME following the manufacturers protocol (5 ug each, 1:1). Conditioned media was collected 72 hours later and passed through a 0.45 uM filter. Virus was either used fresh or stored at −80 C for later usage. For viral infection in FIG. 4 and Extended Data 8, lineage negative bone marrow was isolated using the Mouse Hematopoietic Progenitor Cell Isolation Kit (StemCell 19856) and plated over retronectin coated 6 or 12 well plates for 2 hours in RPMI+10% FBS supplemented with Penicillin/Streptomycin, 20 ng SCF, 10 ng IL6 and 10 ng IL3. Virus and 100×HEPES was added to the wells, then plates were spun for 1 hour at 800×G at 37 C. Following spin, small molecule ligands used to activate recombinases were added to a final concentration as indicated ethanol (v/v 0.0015%), DMSO (v/v 0.1%), 4-hydroxytamoxifen (4-OHT; 400 nM), trimethoprim (TMP; 1 uM) or grazoprevir (GZV, 10 uM). Cells were harvested for flow cytometric analysis 48 hours post infection. For viral infection followed by transplantation in Extended Data 8, a similar approach was utilized with the following modifications. Donor mice were treated with 5-FU 6 days prior to harvest. […]

[10] = system: FlpoDHFR in Npm1^Frt-C Flt3^Frt-ITD bone marrow; settings: FlpoDHFR delivered as a retrovirus in a transplant model
Description: as §2, §3

[11] = system: Npm1GL hematopoietic cells; assay: cell number of Dre-induced mutant Npm1 GOLDI-Lox hematopoietic cells after 4-hydroxytamoxifen; assay type: cell-based, mice; settings: 7 days post administration
Description: FIGS. 30A-30D show the development of a GOLDI-Lox On/Off Dre/Cre Npm1 Mouse. […] A subset of diseased mice were then treated with tamoxifen (TAM) to induce Cre and lead to reversion of the mutant Npm1 allele back to WT Npm1; measured levels of survival (left panel), cKIT^+ cells in the peripheral blood (middle panel), and WBC counts (right panel) in mice that received TAM compared to vehicle treated mice are shown.
Based on previous data on mutant NPM1, it was expected that cells that lose the mutant Npm1 protein undergo differentiation and eventual apoptosis, ultimately leading to a loss of cell number. To validate the reversion of the mutant Npm1 GOLDI-Lox allele to WT, Dre-induced mutant Npm1 GOLDI-Lox hematopoietic cells were exposed to 4-hydroxytamoxifen (40HT) for Cre-recombinase induction, and cell number measured 7 days post 40HT administration using Cre^−; Npm1GL cells as a negative control.

[12] = system: Npm1/Flt3-ITD cKIT+ cells; assay: in vitro culture of cKIT+ leukemic cells with 4-OHT (PrestoBlue); assay type: cell-based, mice; settings: 72 hours of culture

N#CC[C@H](C1CCCC1)n1cc(-c2ncnc3[nH]ccc23)cn1 [ruxolitinib]
CD45.2 chimerism in peripheral blood [1]: 37.7% | mutant cell fraction in LSK stem-cell enriched population (mean) [1]: 87.6% | Hct [1]: 85.8% | spleen weights (mean) [1]: 235 mg | down-regulation of STAT5 target gene expression, NES (Jak2^V617F LSKs and MEPs; GSEA of RNA-seq): −0.913 | erythroid pathway gene expression (heme metabolism), NES (Jak2^V617F LSKs and MEPs; GSEA of RNA-seq, LSKs): 1.45 | expression of Ybx1, Rel. exp (Ybx1): 2.52 | GMP frequency [2]: 6.66% | MEP frequency [2]: 35.3%

CC(=O)Nc1cc(Oc2ccc3c(nc(Nc4ccc(F)cc4F)n3C)c2C)ccn1 [CHZ868]
MEP, GMP, and LSK mutant allele burden ([1]; compared to vehicle/ruxolitinib-treated mice, not to the extent seen with Jak2^V617F deletion): Significant reductions | Hct [1]: 50.3% | spleen weights (mean) [1]: 76 mg

CC/C(=C(\c1ccccc1)c1ccc(OCCN(C)C)cc1)c1ccccc1 [tamoxifen]
CD45.2 chimerism in peripheral blood [1]: 17.3% | mutant cell fraction in LSK stem-cell enriched population (mean) [1]: 28.7% | spleen weights (mean) [1]: 125 mg | down-regulation of STAT5 target gene expression, NES (Jak2^V617F LSKs and MEPs; GSEA of RNA-seq): −1.51 | MAPK activity by RNA-Seq, NES (Jak2^V617F LSKs and MEPs; GSEA of down regulation of KRAS signaling targets, MEPs, vs vehicle): 1.35 | WBC (mean) [3]: 7.59 K/uL | hematocrit (mean) [3]: 41.6% | platelet (mean) [3]: 749 K/uL | phenotypes observed with Ubc:CreER-Jak2^V617F deletion, with tamoxifen in the absence of Jak2^V617F reversal [4]: not observed | WBC counts [5]: significant decrease | cKIT+ cells in the peripheral blood [5]: significant decrease | survival [5]: no significant difference | hematologic parameters [6]: normalization | peripheral blood mutant cell fraction [6]: reductions | expression of Ybx1, Rel. exp (Ybx1): 0.42 | GMP frequency [2]: 20.1% | MEP frequency [2]: 14.2% | overall survival [7]: increase in overall survival

C=C[C@@H]1C[C@]1(NC(=O)[C@@H]1C[C@@H]2CN1C(=O)[C@H](C(C)(C)C)NC(=O)O[C@@H]1C[C@H]1CCCCCc1nc3ccc(OC)cc3nc1O2)C(=O)NS(=O)(=O)C1CC1.O [grazoprevir]
peripheral blood counts with GZV treatment, CAG:DreStaPL-ODC mice [8]: monocytosis, mild anemia and mild thrombocytopenia | peripheral blood counts with GZV treatment, Vav1:DreStaPL-ODC mice [8]: no significant differences | recombination upon inhibition of NS3 proteolytic activity [9]: efficient recombination

COc1cc(Cc2cnc(N)nc2N)cc(OC)c1OC [trimethoprim]
disease induction in the Flp Flt3/Npm1 model [10]: capable of inducing aggressive AML

C=C[C@@H]1C[C@]1(NC(=O)[C@@H]1C[C@@H](Oc2ncc(OC)c3ccc(Cl)cc23)CN1C(=O)[C@@H](NC(=O)OC(C)(C)C)C(C)(C)C)C(=O)NS(=O)(=O)C1CC1 [asunaprevir]
recombination upon inhibition of NS3 proteolytic activity [9]: efficient recombination

4-hydroxytamoxifen [4-OHT]
cell number, Cre+; Npm1GL cells [11]: significant loss of cells | cell number, Cre-; Npm1GL control cells ([11]; negative control): not observed | cell number, Ubc:CreERT2 Npm1^c-Lox-Flt3^GL-ITD cells [12]: reduction in cell number | cell number, FlpoERT2 Npm1^c-Frt Flt3^Frt-ITD cells ([12]; control without Cre-deletable allele): not
